In patent US20240132479A1, “THERAPEUTIC COMPOUNDS AND USES THEREOF” (Board of Trustees of Michigan State University, priority 2021, published 2024):
Values after ≈ are worked out from the molar mass of the structure shown.

Tests used:
[1] = tested on: rifampin resistant (RIF:rpoBS450L) strain (ATCC #35838); type: cell-based, Mycobacterium tuberculosis
[2] = tested on: isoniazid resistant (INH: katGdel) strain (MS015); test: microbe, parasite or virus in culture; type: cell-based; settings: Mycobacterium tuberculosis, H37RV, read-out: MIC H37Rv (katG^del)
[3] = tested on: moxifloxacin resistant (MOX: gyrD94K) strain (MOX3); type: cell-based, Mycobacterium tuberculosis

SMILES	MIC H37Rv (rpoB^S450L) [1]	MIC [2]	MIC H37Rv (gyrA^D94K) [3]
Cc1cc2nc(SCC(=O)N(C(C)C)C(C)C)[nH]c2cc1C [Example 2, 2-[(5,6-dimethyl-1H-1,3-benzodiazol-2-yl)sulfanyl]-N,N-bis(propan-2-yl)acetamide]	0.25 µg/mL (≈ 0.783 µM)	0.5 µg/mL (≈ 1.57 µM)	0.5 µg/mL (≈ 1.57 µM)
CC(C)N(C(=O)CCc1nc2cc(Cl)c(Cl)cc2[nH]1)C(C)C [Example 19]	≤0.125 µg/mL	≤ 0.125 µg/mL	≤0.125 µg/mL
Cc1cc2nc(CCC(=O)N(C(C)C)C(C)C)[nH]c2cc1C [Example 21A]	0.25 µg/mL (≈ 0.829 µM)	≤ 0.125 µg/mL	≤0.125 µg/mL
